How the values were obtained:
Cytochrome P450 2D6 = Cytochrome P450 2D6 (Homo sapiens, UniProt P10635); assay: Inhibition of recombinant CYP2D6 (unknown origin); type: ADME
[1] = Oral bioavailability in mouse at 4 mg/kg; type: ADME, organism-based; conditions: in vivo
[2] = Volume of distribution in steady state in mouse at 2 mg/kg, iv; type: ADME, organism-based; conditions: in vivo, read-out: Vdss
[3] = Permeability across apical to basolateral side in human Caco2 cells; type: ADME, cell-based; conditions: Caco-2, read-out: permeability
[4] = AUC (0 to 24 hrs) in rat at 4 mg/kg, po; type: ADME, organism-based; design: time < 24 hr, dose 4 mg/kg, route oral; conditions: in vivo
Cytochrome P450 2C9 = Cytochrome P450 2C9 (Homo sapiens, UniProt P11712); assay: Inhibition of recombinant CYP2C9 (unknown origin); type: ADME
Cytochrome P450 2C9, sequence (P11712 whole entry): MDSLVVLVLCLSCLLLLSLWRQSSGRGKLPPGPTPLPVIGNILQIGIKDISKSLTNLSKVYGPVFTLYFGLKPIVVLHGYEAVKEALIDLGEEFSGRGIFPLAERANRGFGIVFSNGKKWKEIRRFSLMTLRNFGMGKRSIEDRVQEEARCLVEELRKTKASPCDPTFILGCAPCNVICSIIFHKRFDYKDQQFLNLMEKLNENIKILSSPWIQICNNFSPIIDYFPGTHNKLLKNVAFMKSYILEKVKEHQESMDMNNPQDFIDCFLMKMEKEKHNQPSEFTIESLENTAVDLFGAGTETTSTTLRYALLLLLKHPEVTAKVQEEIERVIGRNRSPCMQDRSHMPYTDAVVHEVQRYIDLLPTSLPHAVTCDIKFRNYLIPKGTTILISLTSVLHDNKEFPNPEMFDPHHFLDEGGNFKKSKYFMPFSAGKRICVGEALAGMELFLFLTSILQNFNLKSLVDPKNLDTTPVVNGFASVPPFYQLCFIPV

[5] = Half life in cynomolgus monkey at 1 mg/kg, iv; type: ADME, organism-based, Macaca fascicularis; conditions: in vivo
[6] = target: T1, Nuclear receptor subfamily 1 group I member 2 (Homo sapiens, UniProt O75469); assay: Inverse agonist activity at PXR (unknown origin)
T1 sequence (O75469 whole entry): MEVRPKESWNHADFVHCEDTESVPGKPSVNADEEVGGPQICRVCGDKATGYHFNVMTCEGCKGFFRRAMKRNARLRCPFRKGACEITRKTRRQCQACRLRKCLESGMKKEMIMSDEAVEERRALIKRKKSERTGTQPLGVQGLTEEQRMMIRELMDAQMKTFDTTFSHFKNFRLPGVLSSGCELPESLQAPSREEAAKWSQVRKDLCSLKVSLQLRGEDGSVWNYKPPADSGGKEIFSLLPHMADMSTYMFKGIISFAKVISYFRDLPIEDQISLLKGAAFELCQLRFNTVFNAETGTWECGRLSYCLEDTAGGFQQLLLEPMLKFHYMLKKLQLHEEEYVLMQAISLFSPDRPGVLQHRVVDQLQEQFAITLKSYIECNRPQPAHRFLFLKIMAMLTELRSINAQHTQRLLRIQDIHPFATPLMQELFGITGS

[7] = Cmax in rat at 4 mg/kg, po; type: ADME, organism-based; design: dose 4 mg/kg, route oral; conditions: in vivo
[8] = Oral bioavailability in cynomolgus monkey at 1 mg/kg; type: ADME, organism-based, Macaca fascicularis; conditions: in vivo
[9] = AUC (0 to 24 hrs) in dog at 1 mg/kg, po; type: ADME, organism-based, Canis lupus familiaris; design: time < 24 hr, dose 1 mg/kg, route oral; conditions: in vivo
[10] = Clearance in dog at 1 mg/kg, iv; type: ADME, organism-based, Canis lupus familiaris; conditions: in vivo
[11] = Oral bioavailability in rat at 4 mg/kg; type: ADME, organism-based; conditions: in vivo
[12] = Fraction unbound in mouse plasma; type: ADME, cell-free
[13] = Drug concentration in Balb/c mouse at 10 mg/kg, po measured upto 24 hrs; type: ADME, organism-based; conditions: in vivo, read-out: Drug uptake
[14] = Clearance in rat at 2 mg/kg, iv; type: ADME, organism-based; conditions: in vivo
[15] = target: T2, Nuclear receptor ROR-alpha (Homo sapiens, UniProt P35398); assay: Inverse agonist activity at Gal4-fused RORalpha (unknown origin)
T2 sequence (P35398 whole entry): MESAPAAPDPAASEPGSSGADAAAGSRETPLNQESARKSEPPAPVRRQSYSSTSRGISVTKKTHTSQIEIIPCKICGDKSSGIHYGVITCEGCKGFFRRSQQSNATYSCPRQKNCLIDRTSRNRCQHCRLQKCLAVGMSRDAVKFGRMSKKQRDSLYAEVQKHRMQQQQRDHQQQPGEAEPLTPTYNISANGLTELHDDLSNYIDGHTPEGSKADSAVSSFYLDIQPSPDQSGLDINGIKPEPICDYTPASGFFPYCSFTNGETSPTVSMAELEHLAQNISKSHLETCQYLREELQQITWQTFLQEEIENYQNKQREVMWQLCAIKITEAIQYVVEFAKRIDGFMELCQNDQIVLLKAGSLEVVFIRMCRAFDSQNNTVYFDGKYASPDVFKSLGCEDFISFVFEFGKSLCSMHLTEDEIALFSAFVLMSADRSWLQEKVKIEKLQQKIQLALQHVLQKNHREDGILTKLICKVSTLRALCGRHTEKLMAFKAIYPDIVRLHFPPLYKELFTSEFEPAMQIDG

[16] = Cmax in cynomolgus monkey at 1 mg/kg, po; type: ADME, organism-based, Macaca fascicularis; design: dose 1 mg/kg, route oral; conditions: in vivo
[17] = Half life in mouse at 2 mg/kg, iv; type: ADME, organism-based; conditions: in vivo
[18] = Half life in human liver microsomes in presence of NADPH by LC/MS/MS method; type: ADME, Microsome
[19] = Volume of distribution in steady state in cynomolgus monkey at 1 mg/kg, iv; type: ADME, organism-based, Macaca fascicularis; conditions: in vivo, read-out: Vdss
[20] = Cmax in mouse at 4 mg/kg, po; type: ADME, organism-based; design: dose 4 mg/kg, route oral; conditions: in vivo
[21] = Half life in rat liver microsomes in presence of NADPH by LC/MS/MS metho; type: ADME, Microsome; conditions: liver microsomes
[22] = Cmax in dog at 1 mg/kg, po; type: ADME, organism-based, Canis lupus familiaris; design: dose 1 mg/kg, route oral; conditions: in vivo
Cytochrome P450 2C19 = Cytochrome P450 2C19 (Homo sapiens, UniProt P33261); assay: Inhibition of recombinant CYP2C19 (unknown origin); type: ADME
Cytochrome P450 2C19, sequence (P33261 whole entry): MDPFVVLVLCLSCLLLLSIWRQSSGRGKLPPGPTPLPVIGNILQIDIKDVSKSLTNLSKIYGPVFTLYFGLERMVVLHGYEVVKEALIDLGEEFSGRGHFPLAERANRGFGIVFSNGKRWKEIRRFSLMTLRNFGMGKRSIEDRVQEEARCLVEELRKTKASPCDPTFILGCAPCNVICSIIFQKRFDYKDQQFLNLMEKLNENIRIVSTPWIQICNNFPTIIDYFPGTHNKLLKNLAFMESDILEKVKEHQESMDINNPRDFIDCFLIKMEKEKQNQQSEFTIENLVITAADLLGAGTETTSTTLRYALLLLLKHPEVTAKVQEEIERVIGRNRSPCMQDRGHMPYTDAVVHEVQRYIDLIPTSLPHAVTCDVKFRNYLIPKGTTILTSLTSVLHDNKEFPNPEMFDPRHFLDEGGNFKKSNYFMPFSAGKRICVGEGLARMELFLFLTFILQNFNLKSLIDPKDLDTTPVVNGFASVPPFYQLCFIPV

[23] = AUC (0 to 24 hrs) in mouse at 4 mg/kg, po; type: ADME, organism-based; design: dose 4 mg/kg, time < 24 hr, route oral; conditions: in vivo
[24] = Volume of distribution in steady state in dog at 1 mg/kg, iv; type: ADME, organism-based, Canis lupus familiaris; conditions: in vivo, read-out: Vdss
[25] = target: T3, Oxysterols receptor LXR-beta (Homo sapiens, UniProt P55055); assay: Inverse agonist activity at LXRbeta (unknown origin)
T3 sequence (P55055 whole entry): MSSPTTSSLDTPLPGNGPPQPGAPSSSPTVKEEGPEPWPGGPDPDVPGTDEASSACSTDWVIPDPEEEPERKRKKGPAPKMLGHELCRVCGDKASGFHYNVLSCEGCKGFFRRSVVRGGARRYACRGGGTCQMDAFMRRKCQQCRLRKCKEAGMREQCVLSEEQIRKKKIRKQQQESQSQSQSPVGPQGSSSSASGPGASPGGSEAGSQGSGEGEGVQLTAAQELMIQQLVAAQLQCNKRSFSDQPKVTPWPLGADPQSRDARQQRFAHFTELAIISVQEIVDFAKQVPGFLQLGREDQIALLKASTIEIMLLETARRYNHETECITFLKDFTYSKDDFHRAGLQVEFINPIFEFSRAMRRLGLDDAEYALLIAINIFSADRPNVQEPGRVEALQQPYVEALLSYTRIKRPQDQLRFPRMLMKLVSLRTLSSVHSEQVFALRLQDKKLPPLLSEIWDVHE

[26] = Volume of distribution in steady state in rat at 2 mg/kg, iv; type: ADME, organism-based; conditions: in vivo, read-out: Vdss
[27] = Cmax in Balb/c mouse at 10 mg/kg, po; type: ADME, organism-based; design: dose 10 mg/kg, route oral; conditions: in vivo

Cytochrome P450 2D6, sequence (P10635 whole entry): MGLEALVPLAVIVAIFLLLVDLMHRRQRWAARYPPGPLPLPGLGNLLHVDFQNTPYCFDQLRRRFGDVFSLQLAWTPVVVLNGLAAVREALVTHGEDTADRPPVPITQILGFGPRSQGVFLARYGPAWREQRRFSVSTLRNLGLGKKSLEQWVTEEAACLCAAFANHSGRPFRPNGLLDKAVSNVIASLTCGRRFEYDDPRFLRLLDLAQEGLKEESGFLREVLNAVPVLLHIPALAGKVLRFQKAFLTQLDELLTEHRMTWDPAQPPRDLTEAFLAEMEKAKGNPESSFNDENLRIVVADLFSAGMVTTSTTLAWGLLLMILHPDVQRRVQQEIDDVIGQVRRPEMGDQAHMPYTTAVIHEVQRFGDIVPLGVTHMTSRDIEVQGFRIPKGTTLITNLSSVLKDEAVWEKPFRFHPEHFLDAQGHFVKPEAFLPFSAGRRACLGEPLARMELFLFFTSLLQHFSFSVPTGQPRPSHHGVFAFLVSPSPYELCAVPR

Structure (SMILES): C[C@H]1C[C@H](C(=O)O)CC[C@H]1C(=O)N1CC[C@@]2(S(=O)(=O)c3ccc(F)cc3)c3ccc(C(F)(C(F)(F)F)C(F)(F)F)cc3CC[C@@H]12 [BMS-986251]
- IC50 (Cytochrome P450 2D6): > 20 µM
- bioavailability [1]: 100%
- Vd [2]: 1.9 L/kg
- Papp A→B [3]: 24 ×10⁻⁶ cm/s
- AUC(0-t) at 24 h [4]: 64 µM·h
- IC50 (Cytochrome P450 2C9): > 20 µM
- half-life [5]: 1980 min
- EC50 [6]: > 5 µM
- Cmax [7]: 4.7 µM
- bioavailability [8]: 100%
- AUC(0-t) at 24 h [9]: 120 µM·h
- clearance [10]: 0.18 mL/min/kg
- bioavailability [11]: 94%
- fraction unbound [12]: 0.016
- concentration at 24 h [13]: 520 nM
- clearance [14]: 1.3 mL/min/kg
- EC50 [15]: > 10 µM
- Cmax [16]: 3.1 µM
- half-life [17]: 462 min
- half-life [18]: > 120 min
- Vd [19]: 2 L/kg
- Cmax [20]: 4.8 µM
- half-life [21]: > 120 min
- Cmax [22]: 6.4 µM
- IC50 (Cytochrome P450 2C19): > 20 µM
- AUC(0-t) at 24 h [23]: 37 µM·h
- Vd [24]: 0.5 L/kg
- EC50 [25]: > 7.5 µM
- Vd [26]: 1.2 L/kg
- Cmax [27]: 11 µM

— ChEMBL document CHEMBL4616702 (ACS Med Chem Lett, 2020)
